According to patent US20140221480A1, “METHODS OF MANAGING BRAIN INFLAMMATION” (EMORY UNIVERSITY, priority 2013, published 2014):
“Also recorded” adds a separate entry of the source. Where two headings read alike, the source gives them in different places.

How the values were obtained:
Format in all cases: in vivo, mice (C57BL/6J)
[1] = Concentration of TAK-242 in plasma and brain tissue after i.p. injection (LC-MS/MS); conditions: for concentration at 3 h / concentration at 8 h / concentration at 24 h: male, C57BL/6J, mouse, ip, 3 mg/kg body weight; for concentration at 3 h: 3 hrs after i.p. injection; for concentration at 8 h: 8 hrs after i.p. injection; for concentration at 24 h: 24 hrs after i.p. injection
Source text: (§1) Animals—Fifty male mice (C57BL/6J, body weight 25˜30 g) were obtained from Jackson Laboratory and maintained in the Division of Laboratory Animal Resources at Emory University”. The experiments outlined in this manuscript conform to the Guide for the Care and Use of Laboratory Animals published by the National Institutes of Health. The animal care and experimental protocols were approved by the Emory University Committee on Animal Care. Animals were randomly assigned to four groups: sham control (S, n=4, for molecular analysis), focal cerebral ischemia/reperfusion (I/R, n=16; 5 for molecular analysis), Sham+TAK-242 (S-T, n=4, for molecular analysis), and I/R+TAK-242 (I/R-T, n=16; 5 for molecular analysis). Ten mice were used for the measurement of TAK-242 concentration in plasma and brain tissue.
(§2) Focal cerebral ischemia/reperfusion—Focal cerebral FR was induced by occlusion of the middle cerebral artery (MCAO) on the left side. Mice were subjected to anesthesia by 5.0% isoflurane and maintained by inhalation of 1.5% to 2% isoflurane driven by 100% oxygen flow. Mice were ventilated (110 breaths/min with volume 0.5 ml) and body temperature was regulated at 37.0° C. Heart rate and PO2 were monitored during surgery. Following the skin incision, the left common carotid artery (CCA), the external carotid artery (ECA), and the internal carotid artery (ICA) were carefully exposed. Microvascular aneurysm clips were applied to the left CCA and the ICA. A coated 6-0 filament (6023PK, Doccol Corp. CA, USA) was introduced into an arteriotomy hole, fed distally into the ICA and advanced 11 mm from the carotid bifurcation. The ICA clamp was removed and focal cerebral ischemia started. After ischemia for 60 min, the filament and the CCA clamp were gently removed (reperfusion starts). The collar suture at the base of the ECA stump was tightened. The skin was closed, anesthesia discontinued, and the animal allowed to recover in a pre-warmed cage. Control mice underwent a neck dissection and coagulation of the external carotid artery, but no occlusion of the MCA. Ischemia and reperfusion were confirmed by rCBF.
(§3) TAK-242 treatment—TAK-242 was dissolved in DMSO and then diluted in sterile endotoxin-free water and injected intraperitoneally (i.p., 3 mg/kg body weight) 1 hr after MCAO or sham surgical operation.
Measurement of TAK242 concentration in plasma and brain tissue—Three, 8 or 24 hours after the injection of TAK242, the mice were anesthetized with 5.0% isoflurane driven by 100% oxygen flow. Blood (0.95 ml) was drawn from the left ventricle and immediately mixed with 0.05 mL sodium citrate (CCS). The samples were incubated at room temperature for 30 min and centrifuged at 8000 rpm. The plasma was collected and stored at −80° C. for future use Immediately after the blood was drawn, the mice were perfused with ice-cold normal saline via the ascending aorta until the perfusion buffer was clear from the right atrium. The brains were removed and weighed. Brain tissues were homogenized with buffer, and centrifuged at 14000 rpm for 10 min. Supernatants were collected and stored at −80° C. The concentrations of TAK-242 were detected by Intertek (USA) using Liquid Chromatography with Tandem Mass Spectrometry Detection (LC-MS/MS). Briefly, TAK-242 and internal standard (Bromfenac) were extracted from 50 μL of mouse plasma or brain homogenate by liquid-liquid extraction using methyltertiary-butyl ether (MTBE). After evaporation to dryness and reconstitution, the extracts were analyzed by LC-MS/MS. Run times were approximately 5 min. The Lower Limit of Quantitation (LLOQ) for TAK-242 is 0.5 ng/ml for plasma and 2 ng/g for brain homogenate.

[2] = tested on: mice subjected to acute cerebral I/R; assay: Assessment of cerebral infarct size by TTC staining after focal cerebral ischemia/reperfusion (MCAO); conditions: 24 hrs after cerebral I/R, 3 mg/kg i.p. 1 hr after ischemia
Source text: Animals—Fifty male mice (C57BL/6J, body weight 25˜30 g) were obtained from Jackson Laboratory and maintained in the Division of Laboratory Animal Resources at Emory University”. The experiments outlined in this manuscript conform to the Guide for the Care and Use of Laboratory Animals published by the National Institutes of Health. The animal care and experimental protocols were approved by the Emory University Committee on Animal Care. […]
Focal cerebral ischemia/reperfusion—Focal cerebral FR was induced by occlusion of the middle cerebral artery (MCAO) on the left side. […] Heart rate and PO2 were monitored during surgery. […]
Assessment of cerebral infarct size—Twenty-four hours after FR, mice were sacrificed and perfused with ice-cold phosphate buffered saline (PBS) via the ascending aorta. […] The infarct areas were traced and quantified with ImageJ analysis system. […] The area of infarction and the area of both hemispheres were calculated for each brain slice. An edema index was calculated by dividing the total volume of the left hemisphere by the total volume of the right hemisphere. The actual infarct volume adjusted for edema was calculated by dividing the infarct volume by the edema index. Infarct volumes are expressed as percentage of the total brain volume±S.E.M.

[3] = tested on: mice subjected to acute cerebral I/R; assay: Evaluation of neurological score after focal cerebral ischemia/reperfusion (MCAO); conditions: 24 hrs after cerebral I/R; 3 mg/kg i.p. 1 hr after ischemia; scale 0 to 15, 15 perfect; control group 4.38
Source text: as §1
Focal cerebral ischemia/reperfusion—Focal cerebral FR was induced by occlusion of the middle cerebral artery (MCAO) on the left side. Mice were subjected to anesthesia by 5.0% isoflurane and maintained by inhalation of 1.5% to 2% isoflurane driven by 100% oxygen flow. Mice were ventilated (110 breaths/min with volume 0.5 ml) and body temperature was regulated at 37.0° C. Heart rate and PO2 were monitored during surgery. […]
Evaluation of neurological score—Mice were scored by a blinded investigator. […]

[4] = tested on: inflammatory cytokines in ischemic brain; assay: Antibody array of inflammatory cytokines in ischemic brain tissue; conditions: 6 hrs after cerebral I/R; 3 mg/kg i.p.; vs untreated controls, p<0.05
Source text: as §1, §2, §3
Antibody array—Proteins were prepared from ischemic cerebral hemispheres. Forty inflammatory cytokines were analyzed by antibody arrays (RayBio® Cytokine Antibody Arrays—Mouse Inflammation Antibody Array G Series I). Briefly, the glass chips were air-dried for 60 min and assembled into an incubation chamber and incubation frame. […] The signal data was collected and analyzed by software from RayBiotech, Inc. (Atlanta, Ga., USA). […]

[5] = hemisphere contralateral to ischemia, brain tissue, read-out: concentration of TAK-242 in hemisphere contralateral to ischemia
[6] = ischemic (ipsilateral) hemisphere, brain tissue, read-out: concentration of TAK-242 in ischemic (ipsilateral) hemisphere
[7] = plasma, mice with tMCAO, read-out: concentration of TAK-242 in plasma

Structure (SMILES): CCOC(=O)C1=CCCC[C@H]1S(=O)(=O)Nc1ccc(F)cc1Cl [TAK-242, ethyl (6R)-6-[N-(2-chloro-4-fluorophenyl)sulfamoyl]cyclohex-1-ene-1-carboxylate]
- ability to pass through the blood brain barrier (BBB) ([1]; 3 mg/kg i.p., mice): passes the blood-brain barrier; also recorded: can pass through the BBB
- concentration in ischemic hemisphere compared with contralateral hemisphere ([1]; 3 mg/kg i.p., p<0.05): significantly higher
- concentration at 3 h [1, 5]: 14.2 ng/mL
- concentration at 8 h [1, 5]: 15.1 ng/mL
- concentration at 24 h [1, 5]: 17.5 ng/mL
- concentration at 3 h [1, 6]: 26.1 ng/mL
- concentration at 8 h [1, 6]: 26.4 ng/mL
- concentration at 24 h [1, 6]: 25 ng/mL
- concentration at 3 h [1, 7]: 52 ng/mL
- concentration at 8 h [1, 7]: 54.1 ng/mL
- concentration at 24 h [1, 7]: 22.6 ng/mL
- brain infarct size ([2]; control group 21.3%): 12.5%
- reduction of brain infarct size compared to control mice ([2]; p<0.05): 41%
- neurological score [3]: 6.73
- level of MCP-1 in brain tissue [4]: significantly reduced
- level of MIP-1γ in brain tissue [4]: significantly reduced
- level of TIMP-1 in brain tissue [4]: significantly reduced
- level of sTNF RII in brain tissue [4]: significantly reduced
